{"source": "paper PMC9596378", "about": "“Discovery and molecular basis of subtype-selective cyclophilin inhibitors” (Nature Chemical Biology, 2022)", "key": {"PPIL1": {"biological_target": "T1, PPIL1 (Homo sapiens, UniProt Q9Y3C6)", "T1 construct": "PPIL1 (UniProtKB Entry Q9Y3C6: residues 1–166); made in house; host or cells: E. coli BL21(DE3)", "T1 sequence (Q9Y3C6 1-166)": "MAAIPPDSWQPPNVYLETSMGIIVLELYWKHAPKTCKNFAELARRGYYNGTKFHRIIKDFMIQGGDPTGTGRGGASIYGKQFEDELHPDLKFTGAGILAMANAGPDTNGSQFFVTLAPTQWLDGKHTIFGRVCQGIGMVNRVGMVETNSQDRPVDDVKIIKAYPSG", "assay": "Chymotrypsin coupled prolyl-isomerase assay", "format": "biochemical", "conditions": "wild-type PPIL1; read-out: Wild-Type Cyclophilin Prolyl Isomerase Inhibition IC50 Values, PPIL1", "method": "(§2) Adapting a previously described protocol[51], with an Agilent Bravo Velocity 11 with a 384ST head, 90 µL assay buffer (25 mM HEPES pH 7.3, 100 mM NaCl, 0.01% Triton X-100) containing 5.28 nM cyclophilin was added into a flat, clear-bottom, black 384-well plate pre-chilled in a Corning CoolBox at 2–3 °C. Five microliters of compound pre-dissolved in 5% DMSO/assay buffer was then added to appropriate wells and incubated at 2–3 °C for 5 min. Five microliters of 0.5 mM α-chymotrypsin from bovine pancreas (Type II, lyophilized powder, Millipore-Sigma) in 20% 1 mM HCl/Assay Buffer was then added to each well and incubated at 2–3 °C for 5 min. […] Using the internal liquid handling system of the FLIPR, 1 µL 0.5 mM Suc-AAPF-AMC (Chymotrypsin Substrate II, Millipore-Sigma) dissolved in 0.55 M LiCl/2,2,2-trifluoroethanol was added to each well, which was then mixed for 5 s, followed by immediate fluorescence measurements every 1 s for 330 s using a 360–380 nm excitation LED module and a 400–460 nm emission filter. Final concentrations of the plate include 5 nM cyclophilin, 0.25% DMSO, 25 µM α-chymotrypsin, 5 µM Suc-AAPF-AMC. Raw fluorescence data was analyzed by non-linear regression analysis with Prism v.9 by fitting one-phase association curves to each well. Analyses were halted after the calculated maximum fluorescent value owing to observed fluorescent bleaching during the sustained fluorescent plateau. Rate constants calculated for each well (s^−1) were then normalized to substrate only (no prolyl-isomerase) and enzyme + substrate only controls. IC50 values were calculated as the value at which 50% inhibition was achieved on the non-linear regression fitted curve of each compound."}, "CypA": {"biological_target": "T2, CypA (Homo sapiens, UniProt P62937)", "T2 construct": "PPIA (UniProtKB Entry P62937: residues 1–165); made in house; host or cells: E. coli BL21(DE3)", "T2 sequence (P62937 whole entry, the tested form may be a part)": "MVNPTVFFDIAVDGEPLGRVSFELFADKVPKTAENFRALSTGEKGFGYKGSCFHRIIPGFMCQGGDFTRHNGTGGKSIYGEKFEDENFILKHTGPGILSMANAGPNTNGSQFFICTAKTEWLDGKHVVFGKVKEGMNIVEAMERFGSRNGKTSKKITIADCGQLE", "assay": "Chymotrypsin coupled prolyl-isomerase assay", "format": "biochemical", "conditions": "wild-type CypA; read-out: Wild-Type Cyclophilin Prolyl Isomerase Inhibition IC50 Values, CypA", "how_it_was_run": "(§1)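 Steps: cyclophilin plus compound 5 min at 2–3 °C; α-chymotrypsin added, 5 min more; Suc-AAPF-AMC substrate in LiCl/trifluoroethanol injected and fluorescence followed 330 s. Finals: 5 nM enzyme, 25 µM chymotrypsin, 5 µM substrate, 0.25% DMSO.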"}, "CypC": {"biological_target": "T3, CypC (Homo sapiens, UniProt P45877)", "T3 construct": "PPIC (UniProtKB Entry P45877: residues 24–212); host or cells: E. coli BL21(DE3)", "T3 sequence (P45877 24-212)": "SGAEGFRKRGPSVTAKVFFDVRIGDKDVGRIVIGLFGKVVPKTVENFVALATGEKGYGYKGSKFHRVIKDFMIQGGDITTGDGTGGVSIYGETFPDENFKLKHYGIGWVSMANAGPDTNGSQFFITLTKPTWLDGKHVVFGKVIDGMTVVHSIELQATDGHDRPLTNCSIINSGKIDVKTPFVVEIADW", "assay": "Chymotrypsin coupled prolyl-isomerase assay", "format": "biochemical", "conditions": "wild-type CypC; read-out: Wild-Type Cyclophilin Prolyl Isomerase Inhibition IC50 Values, CypC", "how_it_was_run": "as §1"}, "CypG": {"biological_target": "T4, CypG (Homo sapiens, UniProt Q13427)", "T4 construct": "PPIG (UniProtKB Entry Q13427: residues 1–179); His6 with thrombin site (pET28a LIC leader) (N); host or cells: E. coli BL21(DE3)", "T4 sequence (Q13427 1-179)": "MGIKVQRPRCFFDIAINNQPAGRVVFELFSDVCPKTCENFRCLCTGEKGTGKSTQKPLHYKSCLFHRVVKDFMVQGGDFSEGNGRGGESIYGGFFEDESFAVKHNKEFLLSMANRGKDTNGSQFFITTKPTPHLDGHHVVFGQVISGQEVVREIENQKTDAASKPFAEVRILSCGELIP", "assay": "Chymotrypsin coupled prolyl-isomerase assay", "format": "biochemical", "conditions": "wild-type CypG; read-out: Wild-Type Cyclophilin Prolyl Isomerase Inhibition IC50 Values, CypG", "how_it_was_run": "as §1"}, "CypH": {"biological_target": "T5, CypH (Homo sapiens, UniProt O43447)", "T5 construct": "PPIH (UniProtKB Entry O43447: residues 1–177); His6 with TEV site (2BT vector leader) (N); made in house; host or cells: E. coli BL21(DE3)", "T5 sequence (O43447 whole entry, the tested form may be a part)": "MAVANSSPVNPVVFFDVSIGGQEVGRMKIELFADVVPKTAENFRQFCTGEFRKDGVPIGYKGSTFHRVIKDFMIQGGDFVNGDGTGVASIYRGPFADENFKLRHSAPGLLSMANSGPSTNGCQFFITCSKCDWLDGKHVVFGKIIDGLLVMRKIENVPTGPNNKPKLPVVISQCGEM", "assay": "Chymotrypsin coupled prolyl-isomerase assay", "format": "biochemical", "conditions": "wild-type CypH; read-out: Wild-Type Cyclophilin Prolyl Isomerase Inhibition IC50 Values, CypH", "how_it_was_run": "as §1"}, "CypE": {"biological_target": "T6, CypE (Homo sapiens, UniProt Q9UNP9)", "T6 construct": "PPIE (UniProtKB Entry Q9UNP9: residues 131–301); host or cells: E. coli BL21(DE3)", "T6 sequence (Q9UNP9 131-301)": "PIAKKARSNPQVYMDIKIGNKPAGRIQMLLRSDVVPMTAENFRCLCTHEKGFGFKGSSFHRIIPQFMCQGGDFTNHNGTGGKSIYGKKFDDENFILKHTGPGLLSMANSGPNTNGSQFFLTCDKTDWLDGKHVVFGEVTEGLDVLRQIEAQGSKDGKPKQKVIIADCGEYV", "assay": "Chymotrypsin coupled prolyl-isomerase assay", "format": "biochemical", "conditions": "wild-type CypE; read-out: Wild-Type Cyclophilin Prolyl Isomerase Inhibition IC50 Values, CypE", "how_it_was_run": "as §1"}, "NKTR": {"biological_target": "T7, NKTR (Homo sapiens, UniProt P30414)", "T7 construct": "NKTR (UniProtKB Entry P30414: residues 7–179); host or cells: E. coli BL21(DE3)", "T7 sequence (P30414 7-179)": "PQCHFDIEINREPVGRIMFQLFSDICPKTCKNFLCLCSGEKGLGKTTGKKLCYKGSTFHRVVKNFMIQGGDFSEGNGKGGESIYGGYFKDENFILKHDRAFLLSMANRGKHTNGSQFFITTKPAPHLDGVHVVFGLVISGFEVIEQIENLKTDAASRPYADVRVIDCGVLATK", "assay": "Chymotrypsin coupled prolyl-isomerase assay", "format": "biochemical", "conditions": "wild-type NKTR; read-out: Wild-Type Cyclophilin Prolyl Isomerase Inhibition IC50 Values, NKTR", "method": "as §2"}, "CypB": {"biological_target": "T8, CypB (Homo sapiens, UniProt P23284)", "T8 construct": "PPIB (UniProtKB Entry P23284: residues 34–216); His6 with TEV site (2BT vector leader) (N); made in house; host or cells: E. coli BL21(DE3)", "T8 sequence (P23284 34-216)": "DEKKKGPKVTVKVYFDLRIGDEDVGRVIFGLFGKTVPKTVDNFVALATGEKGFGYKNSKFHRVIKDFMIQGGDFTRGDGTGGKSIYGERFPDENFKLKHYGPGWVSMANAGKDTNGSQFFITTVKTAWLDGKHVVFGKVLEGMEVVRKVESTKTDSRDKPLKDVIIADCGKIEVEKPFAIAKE", "assay": "biochemical", "conditions": "wild-type CypB; read-out: Wild-Type Cyclophilin Prolyl Isomerase Inhibition IC50 Values, CypB", "how_it_was_run": "as §1"}}}
{"compound": "NCCCc1ccc(-c2ccc(C[C@@H]3NC(=O)[C@]4(Cc5ccccc5)CCCN(C4)C(=O)/C=C/C(=O)NCC[C@@H](C(=O)NCCOCCN)NC(=O)Cc4ccccc4CNC3=O)cc2)cc1", "note": "[Compound B32]", "values": [{"measurement": "IC50", "setting": "PPIL1", "value": 2, "unit": "µM"}, {"measurement": "IC50", "setting": "CypA", "value": 8, "unit": "µM"}, {"measurement": "IC50", "setting": "CypC", "value": 1.2, "unit": "µM"}, {"measurement": "IC50", "setting": "CypG", "value": 11, "unit": "µM"}, {"measurement": "IC50", "setting": "CypH", "value": "> 50", "unit": "µM"}, {"measurement": "IC50", "setting": "CypE", "value": 7, "unit": "µM"}, {"measurement": "IC50", "setting": "NKTR", "value": "> 50", "unit": "µM"}, {"measurement": "IC50", "setting": "CypB", "value": 3, "unit": "µM"}]}
